Like-named read-outs stand apart in the source and are kept apart here.
Assays:
[1] = target: MLK2 (Homo sapiens (Human), UniProt Q02779); test: Evaluation of inhibitory activity of enzyme units, MLK2 ([γ-33P]-ATP filter assay); assay type: biochemical
[2] = target: MLK3 (Homo sapiens (Human), UniProt Q16584); test: Evaluation of inhibitory activity of enzyme units, MLK3 ([γ-33P]-ATP filter assay)
[3] = target: LRRK2 wild-type (Homo sapiens (Human), UniProt Q5S007); test: Evaluation of inhibitory activity against LRRK2 (affinity bead competition binding), wild-type; details: read-out: Residual active values (%) LRRK2
LRRK2 wild-type, sequence (Q5S007 whole entry, looked up): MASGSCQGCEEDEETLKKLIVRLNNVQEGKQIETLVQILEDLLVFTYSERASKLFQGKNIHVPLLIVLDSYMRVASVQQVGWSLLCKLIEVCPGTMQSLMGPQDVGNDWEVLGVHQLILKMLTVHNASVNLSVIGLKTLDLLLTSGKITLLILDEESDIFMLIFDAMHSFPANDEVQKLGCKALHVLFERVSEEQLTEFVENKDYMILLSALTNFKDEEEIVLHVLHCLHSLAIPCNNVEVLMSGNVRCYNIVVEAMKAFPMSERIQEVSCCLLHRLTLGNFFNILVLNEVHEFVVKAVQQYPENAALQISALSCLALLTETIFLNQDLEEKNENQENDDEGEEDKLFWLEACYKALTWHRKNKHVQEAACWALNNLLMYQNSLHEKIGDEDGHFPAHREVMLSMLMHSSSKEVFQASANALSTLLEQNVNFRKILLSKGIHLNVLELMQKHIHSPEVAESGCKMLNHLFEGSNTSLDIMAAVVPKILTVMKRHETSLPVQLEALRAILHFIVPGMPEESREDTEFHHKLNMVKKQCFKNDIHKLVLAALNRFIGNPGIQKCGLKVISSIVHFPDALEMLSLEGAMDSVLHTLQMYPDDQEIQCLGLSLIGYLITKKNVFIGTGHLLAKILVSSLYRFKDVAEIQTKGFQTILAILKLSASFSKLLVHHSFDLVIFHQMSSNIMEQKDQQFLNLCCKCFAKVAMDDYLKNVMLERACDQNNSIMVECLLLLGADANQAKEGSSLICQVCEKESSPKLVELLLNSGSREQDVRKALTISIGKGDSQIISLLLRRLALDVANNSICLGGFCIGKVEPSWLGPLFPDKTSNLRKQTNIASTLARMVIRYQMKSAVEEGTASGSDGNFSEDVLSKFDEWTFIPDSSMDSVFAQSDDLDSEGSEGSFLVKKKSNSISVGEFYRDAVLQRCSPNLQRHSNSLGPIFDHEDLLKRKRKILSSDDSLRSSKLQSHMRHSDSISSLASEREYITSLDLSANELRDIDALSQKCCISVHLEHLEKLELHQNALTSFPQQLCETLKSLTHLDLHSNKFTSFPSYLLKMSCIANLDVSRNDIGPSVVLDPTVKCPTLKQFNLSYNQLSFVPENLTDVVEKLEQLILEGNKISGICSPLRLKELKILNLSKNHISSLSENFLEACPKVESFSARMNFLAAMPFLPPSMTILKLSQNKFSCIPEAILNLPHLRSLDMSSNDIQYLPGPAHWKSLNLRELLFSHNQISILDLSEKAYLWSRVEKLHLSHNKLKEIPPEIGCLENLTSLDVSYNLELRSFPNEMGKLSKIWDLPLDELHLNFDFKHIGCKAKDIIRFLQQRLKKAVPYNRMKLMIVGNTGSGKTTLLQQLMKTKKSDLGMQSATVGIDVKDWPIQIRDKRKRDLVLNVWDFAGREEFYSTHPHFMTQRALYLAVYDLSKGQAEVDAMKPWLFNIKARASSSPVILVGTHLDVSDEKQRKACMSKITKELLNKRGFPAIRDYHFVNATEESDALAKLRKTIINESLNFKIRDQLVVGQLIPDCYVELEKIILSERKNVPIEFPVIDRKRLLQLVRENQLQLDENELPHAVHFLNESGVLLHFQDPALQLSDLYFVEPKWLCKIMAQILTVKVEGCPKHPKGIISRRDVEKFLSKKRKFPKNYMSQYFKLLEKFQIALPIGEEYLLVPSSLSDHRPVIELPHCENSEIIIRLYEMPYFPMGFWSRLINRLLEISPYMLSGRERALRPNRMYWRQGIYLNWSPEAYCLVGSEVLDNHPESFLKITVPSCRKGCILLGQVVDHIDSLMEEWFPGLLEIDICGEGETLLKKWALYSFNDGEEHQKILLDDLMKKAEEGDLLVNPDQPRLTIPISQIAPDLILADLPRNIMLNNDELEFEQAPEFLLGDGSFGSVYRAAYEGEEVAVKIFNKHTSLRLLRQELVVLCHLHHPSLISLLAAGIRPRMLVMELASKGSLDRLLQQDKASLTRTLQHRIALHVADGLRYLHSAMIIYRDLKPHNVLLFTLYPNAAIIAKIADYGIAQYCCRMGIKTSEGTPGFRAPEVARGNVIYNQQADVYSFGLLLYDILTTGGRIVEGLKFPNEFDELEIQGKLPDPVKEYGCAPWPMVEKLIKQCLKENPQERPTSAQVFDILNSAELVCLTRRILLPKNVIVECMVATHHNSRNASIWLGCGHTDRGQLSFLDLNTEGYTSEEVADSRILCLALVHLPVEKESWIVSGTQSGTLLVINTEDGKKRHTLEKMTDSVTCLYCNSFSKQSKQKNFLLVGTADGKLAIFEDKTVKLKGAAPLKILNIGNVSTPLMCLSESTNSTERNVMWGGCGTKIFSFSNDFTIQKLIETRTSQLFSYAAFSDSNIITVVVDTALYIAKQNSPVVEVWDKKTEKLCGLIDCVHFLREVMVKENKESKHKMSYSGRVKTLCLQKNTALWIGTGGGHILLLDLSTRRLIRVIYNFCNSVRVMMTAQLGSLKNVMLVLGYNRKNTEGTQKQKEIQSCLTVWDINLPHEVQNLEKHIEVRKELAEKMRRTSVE
Experimental: (§1) In order to identify the activity inhibitory effect on the LRRK2 wild-type and LRRK2 mutant (G2019S) kinase of the example compound according to the present disclosure, BL21-derived E. coli bacteria (E. coli) were cultured in a 24-well plate until the growth phase (log phase). After culturing, T7 phage tagged with LRRK2 wild-type or LRRK2 mutant (G2019S) was used to infect the multiplicity of infection (MOI) at 0.4. Thereafter, the E. coli bacteria were stirred at 32° C. for 90 to 150 minutes to allow dissolution. The lysate of E. coli bacteria was centrifuged (6,000×g) and filtered (0.2 μm), and the obtained tagged T7 phage […] a DNA-tagged kinase protein (LRRK2 or LRRK2 G2019S) was obtained.
(§2) After blocking the biotinylated ligand with extra biotin, it is washed with Pierce's buffer, SeaBlock (1% BSA, 0.05% Tween 20, 1 mM DTT) to remove unbound ligand and reduce non-specific binding.
(§3) The compound was prepared at a concentration of 40× in 100% DMSO and used after dilution, and all binding reactions were performed in a final volume of 0.02 ml in a 384-well plate.
(§4) The activity inhibitory effect on the LRRK2 wild-type and LRRK2 mutant (G2019S) kinases of the example compounds according to the present disclosure was measured and shown in Table 10 below.

[4] = test system: human breast cancer cell line MDA-MB-231; test: Cancer cell proliferation inhibitory activity evaluation 1 (CCK-8), MDA-MB-231; assay type: cell-based
Experimental: (§5) In order to identify whether the compound has anticancer activity, the human breast cancer cell line MDA-MB-231, the colorectal cancer cell line HT-29, the acute myeloid leukemia cell line U937, and the chronic myeloid leukemia cell line K562 were used. The cell line was cultured using RPMI-1640 medium containing 10% fetal bovine serum. Welgene products were used as the medium, and hyclone products were used for fetal bovine serum, and 1% of antibiotics for cell culture from Gibco were used as the culture medium.

[5] = test system: acute lymphoblastic leukemia cell line Jurkat; test: Cancer cell proliferation inhibitory activity evaluation 2 (CCK-8), Jurkat; assay type: cell-based; details: Homo sapiens
[6] = test system: gastric cancer cell line Hs746T; test: Cancer cell proliferation inhibitory activity evaluation 2 (CCK-8), Hs746T; assay type: cell-based; details: Homo sapiens, 10 μM, 72 hours, CCK-8, read-out: Cancer cell proliferation inhibitory activity Hs746T
[7] = target: LRRK2 mutant (G2019S) (Homo sapiens (Human), UniProt Q5S007, G2019S); test: Evaluation of inhibitory activity against LRRK2 (affinity bead competition binding), G2019S mutant; details: read-out: Residual active values (%) LRRK2(G2019S)
LRRK2 mutant (G2019S), sequence (Q5S007 whole entry G2019S, looked up): as the sequence (Q5S007 whole entry, looked up) above, with G2019S counted along it
Experimental: as §1, §2, §3, §4

[8] = test system: colorectal cancer cell line HT-29; test: Cancer cell proliferation inhibitory activity evaluation 1 (CCK-8), HT-29; assay type: cell-based; details: Homo sapiens, read-out: Cancer cell proliferation inhibitory activity HT29
Experimental: as §5

[9] = test system: chronic myeloid leukemia cell line K562; test: Cancer cell proliferation inhibitory activity evaluation 1 (CCK-8), K562; assay type: cell-based; details: Homo sapiens, read-out: Cancer cell proliferation inhibitory activity K562
Experimental: as §5

[10] = test system: TGF-β1; test: Fibrosis inhibition evaluation 2, palmitic acid-induced HepG2, real-time PCR, TGF-β1
[11] = test system: acute myeloid leukemia cell line U937; test: Cancer cell proliferation inhibitory activity evaluation 1 (CCK-8), U937; assay type: cell-based; details: Homo sapiens, read-out: Cancer cell proliferation inhibitory activity U937
Experimental: as §5

[12] = test system: human lung cancer cell line A549; test: Cancer cell proliferation inhibitory activity evaluation 2 (CCK-8), A549; assay type: cell-based; details: A549, 10 μM, 72 hours, CCK-8, read-out: Cancer cell proliferation inhibitory activity A549
[13] = test system: Fibronectin-1; test: Fibrosis inhibition evaluation 2, palmitic acid-induced HepG2, real-time PCR, Fibronectin-1
[14] = test system: acute myeloid leukemia cell line U937; test: Cancer cell proliferation inhibitory activity evaluation 2 (CCK-8), U937; assay type: cell-based; details: Homo sapiens, read-out: Cancer cell proliferation inhibitory activity U937
[15] = test system: gastric cancer cell line AGS; test: Cancer cell proliferation inhibitory activity evaluation 2 (CCK-8), AGS; assay type: cell-based; details: Homo sapiens, read-out: Cancer cell proliferation inhibitory activity AGS
[16] = target: MLK1 (Homo sapiens (Human), UniProt P80192); test: Evaluation of inhibitory activity of enzyme units, MLK1 ([γ-33P]-ATP filter assay); assay type: biochemical
[17] = MDA-MB-231, 10 μM, 72 hours, CCK-8, read-out: Cancer cell proliferation inhibitory activity MDAMB231
[18] = 10 μM, 72 hours, CCK-8, read-out: Cancer cell proliferation inhibitory activity Jurkat
[19] = U-937, 10 μM, 72 hours, CCK-8 (Table 2)
[20] = U-937, 10 μM, 72 hours, CCK-8 (Table 3)
[21] = MDA-MB-231, 72 h, read-out: Cancer cell proliferation inhibitory activity MDAMB231
[22] = 72 h, read-out: Cancer cell proliferation inhibitory activity Jurkat

MLK2, sequence (Q02779 whole entry, looked up): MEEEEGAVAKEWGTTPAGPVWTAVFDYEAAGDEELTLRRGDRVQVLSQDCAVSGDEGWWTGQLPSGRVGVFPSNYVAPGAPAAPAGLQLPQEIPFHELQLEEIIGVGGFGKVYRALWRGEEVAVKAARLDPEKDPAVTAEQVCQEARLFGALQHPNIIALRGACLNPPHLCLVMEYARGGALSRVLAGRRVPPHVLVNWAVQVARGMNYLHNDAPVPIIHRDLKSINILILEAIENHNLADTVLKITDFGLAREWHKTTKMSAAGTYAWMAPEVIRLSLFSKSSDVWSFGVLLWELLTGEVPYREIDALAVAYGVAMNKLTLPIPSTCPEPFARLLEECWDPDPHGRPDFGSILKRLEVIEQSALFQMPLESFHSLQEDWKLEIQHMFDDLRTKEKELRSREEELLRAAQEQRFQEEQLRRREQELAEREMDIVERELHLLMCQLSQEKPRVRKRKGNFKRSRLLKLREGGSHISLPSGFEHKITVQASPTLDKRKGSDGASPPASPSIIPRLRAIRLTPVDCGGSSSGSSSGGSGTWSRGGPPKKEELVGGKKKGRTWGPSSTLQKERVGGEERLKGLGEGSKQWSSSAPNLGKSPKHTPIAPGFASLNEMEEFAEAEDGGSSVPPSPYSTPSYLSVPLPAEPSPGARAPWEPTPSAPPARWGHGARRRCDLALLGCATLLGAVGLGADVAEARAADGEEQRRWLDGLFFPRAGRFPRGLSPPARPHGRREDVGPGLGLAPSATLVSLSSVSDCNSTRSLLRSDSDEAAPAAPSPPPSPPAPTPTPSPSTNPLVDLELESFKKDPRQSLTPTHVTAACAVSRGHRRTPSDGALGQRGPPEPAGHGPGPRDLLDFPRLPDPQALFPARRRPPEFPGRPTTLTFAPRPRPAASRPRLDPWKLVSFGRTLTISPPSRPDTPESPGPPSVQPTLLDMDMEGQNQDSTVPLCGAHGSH
MLK3, sequence (Q16584 whole entry, looked up): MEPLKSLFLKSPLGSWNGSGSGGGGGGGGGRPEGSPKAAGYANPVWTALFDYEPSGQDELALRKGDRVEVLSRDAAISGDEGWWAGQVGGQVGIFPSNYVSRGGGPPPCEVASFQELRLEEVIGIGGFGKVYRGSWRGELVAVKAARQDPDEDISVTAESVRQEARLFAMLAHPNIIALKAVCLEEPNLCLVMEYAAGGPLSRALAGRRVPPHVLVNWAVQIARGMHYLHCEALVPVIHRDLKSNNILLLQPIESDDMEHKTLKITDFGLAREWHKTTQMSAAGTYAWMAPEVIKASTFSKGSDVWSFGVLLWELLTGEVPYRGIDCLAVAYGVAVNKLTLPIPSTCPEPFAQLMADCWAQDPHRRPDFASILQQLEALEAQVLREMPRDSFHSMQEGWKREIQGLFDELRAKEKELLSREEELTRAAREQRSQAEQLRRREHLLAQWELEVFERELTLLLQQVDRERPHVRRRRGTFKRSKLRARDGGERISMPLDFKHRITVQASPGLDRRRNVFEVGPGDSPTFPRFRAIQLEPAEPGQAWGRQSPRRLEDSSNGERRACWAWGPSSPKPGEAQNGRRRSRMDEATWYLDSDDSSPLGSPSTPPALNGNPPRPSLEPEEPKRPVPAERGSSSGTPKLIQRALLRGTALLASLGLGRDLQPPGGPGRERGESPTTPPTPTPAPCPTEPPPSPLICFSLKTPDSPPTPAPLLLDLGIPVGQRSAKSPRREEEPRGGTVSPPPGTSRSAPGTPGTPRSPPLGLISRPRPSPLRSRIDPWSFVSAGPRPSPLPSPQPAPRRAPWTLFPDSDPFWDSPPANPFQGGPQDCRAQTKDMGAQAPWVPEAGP

SMILES	IC50 ([2]; read-out: IC50(nM) MLK3)	inhibition at 10 µM [4, 17]	inhibition at 10 µM [5, 18]	inhibition at 10 µM ([8]; HT-29, 10 μM, 72 hours, CCK-8)	inhibition at 10 µM ([9]; K562, 10 μM, 72 hours, CCK-8)	inhibition at 10 µM [11, 19]	inhibition at 10 µM [14, 20]	inhibition at 10 µM ([15]; 10 μM, 72 hours, CCK-8)	further results
CCS(=O)(=O)N1CC[C@H](Nc2c(Br)cnc3[nH]c(-c4cc(C)n(-c5cccc(C(=O)N6CCOCC6)c5)c4C)nc23)C1 [Example 6, (S)-(3-(3-(6-bromo-7-((1-(ethylsulfonyl)pyrrolidine-3-yl)amino)-3H-imidazo[4,5-b]pyridine-2-yl)-2,5-dimethyl-1H-pyrrol-1-yl)phenyl) (morpholino) methanone]	6 nM	–	–	–	–	–	–	–	IC50 [1]: 181 nM
CCS(=O)(=O)N1CC[C@H](Nc2c(Br)cnc3nc(-c4cc(C)n(-c5cccc(OCCN6CCOCC6)c5)c4C)[nH]c23)C1 [Example 3, (S)-6-bromo-2-(2,5-dimethyl-1-(3-(2-morpholinoethoxy)phenyl)-1H-pyrrol-3-yl)-N-(1-(ethylsulfonyl)pyrrolidine-3-yl)-1H-imidazo[4,5-b]pyridine-7-amine]	–	> 50%	> 50%	10 to 50%	> 50%	> 50%	10 to 50%	–	remaining binding at 0.1 µM ([3]; 100 nM): 17%; remaining binding at 0.5 µM ([3]; 500 nM): 3.1%; inhibition at 10 µM [6]: > 50%; remaining binding at 0.1 µM ([7]; 100 nM): 3.5%; remaining binding at 0.5 µM ([7]; 500 nM): 0.9%; Relative degree of expression inhibition (%) TGF-β1 [10]: 109.05%; inhibition at 10 µM [12]: 10 to 50%; Relative degree of expression inhibition (%) Fibronectin-1 [13]: 72.85%
CCS(=O)(=O)N1CC[C@H](Nc2c(Br)cnc3[nH]c(-c4cc(C)n(-c5ccc(Cl)c(Cl)c5)c4C)nc23)C1 [Example 15, (S)-6-bromo-2-(1-(3,4-dichlorophenyl)-2,5-dimethyl-1H-pyrrol-3-yl)-N-(1-(ethylsulfonyl)pyrrolidine-3-yl)-3H-imidazo[4,5-b]pyridine-7-amine]	34 nM	–	–	–	–	–	–	–	inhibition at 10 µM [4, 21]: > 50%; inhibition at 10 µM [5, 22]: < 10%; inhibition at 10 µM ([8]; HT-29, 72 h): < 10%; inhibition at 10 µM ([9]; K562, 72 h): 10 to 50%; inhibition at 10 µM ([11]; U-937, 72 h): 10 to 50%; inhibition at 10 µM ([15]; 72 h): 10 to 50%; inhibition at 10 µM ([14]; U-937, 72 h): 10 to 50%
CCS(=O)(=O)N1CC[C@H](Nc2c(Br)cnc3nc(-c4cc(C)n(-c5ccc(OCCOC)cc5)c4C)[nH]c23)C1 [Example 22, (S)-6-bromo-N-(1-(ethylsulfonyl)pyrrolidine-3-yl)-2-(1-(4-(2-methoxyethoxy)phenyl)-2,5-dimethyl-1H-pyrrol-3-yl)-1H-imidazo[4,5-b]pyridine-7-amine]	17 nM	–	–	–	–	–	–	10 to 50%	IC50 [16]: 38 nM; IC50 [1]: 186 nM
CCS(=O)(=O)N1CC[C@H](Nc2c(Br)cnc3[nH]c(-c4cc(C)n(-c5ccc(C(=O)N6CCOCC6)cc5)c4C)nc23)C1 [Example 5, (S)-(4-(3-(6-bromo-7-((1-(ethylsulfonyl)pyrrolidine-3-yl)amino)-3H-imidazo[4,5-b]pyridine-2-yl)-2,5-dimethyl-1H-pyrrol-1-yl)phenyl) (morpholino) methanone]	6 nM	–	–	–	–	–	–	–	IC50 [1]: 92 nM
Cc1cc(-c2nc3c(Nc4cccc(S(N)(=O)=O)c4)c(Br)cnc3[nH]2)c(C)n1-c1ccc(N2CCOCC2)cc1 [Example 40, 3-((6-bromo-2-(2,5-dimethyl-1-(4-morpholinophenyl)-1H-pyrrol-3-yl)-3H-imidazo[4,5-b]pyridine-7-yl)amino)benzenesulfonamide]	68 nM	10 to 50%	> 50%	> 50%	10 to 50%	> 50%	10 to 50%	10 to 50%	–
CCS(=O)(=O)N1CC[C@H](Nc2c(Br)cnc3[nH]c(-c4cc(C)n(-c5ccc(N6CCOCC6)cc5)c4C)nc23)C1 [Example 1, (S)-6-bromo-2-(2,5-dimethyl-1-(4-morpholinophenyl)-1H-pyrrol-3-yl)-N-(1-(ethylsulfonyl)pyrrolidine-3-yl)-3H-imidazo[4,5-b]pyridine-7-amine]	–	10 to 50%	10 to 50%	10 to 50%	< 10%	10 to 50%	10 to 50%	10 to 50%	IC50 [2]: 4 nM
CCS(=O)(=O)N1CC[C@H](Nc2c(Br)cnc3[nH]c(-c4cc(C)n(-c5c(Cl)cccc5Cl)c4C)nc23)C1 [Example 13, (S)-6-bromo-2-(1-(2,6-dichlorophenyl)-2,5-dimethyl-1H-pyrrol-3-yl)-N-(1-(ethylsulfonyl)pyrrolidine-3-yl)-3H-imidazo[4,5-b]pyridine-7-amine]	7 nM	–	–	–	–	–	–	–	inhibition at 10 µM [4, 21]: 10 to 50%; inhibition at 10 µM [5, 22]: > 50%; inhibition at 10 µM ([8]; HT-29, 72 h): 10 to 50%; inhibition at 10 µM ([9]; K562, 72 h): 10 to 50%; inhibition at 10 µM ([11]; U-937, 72 h): > 50%; inhibition at 10 µM ([15]; 72 h): > 50%; inhibition at 10 µM ([14]; U-937, 72 h): 10 to 50%
Cc1cc(-c2nc3c(Nc4cccc(S(N)(=O)=O)c4)c(Br)cnc3[nH]2)c(C)n1-c1cc(Cl)ccc1Cl [Example 35, 3-((6-bromo-2-(1-(2,5-dichlorophenyl)-2,5-dimethyl-1H-pyrrol-3-yl)-3H-imidazo[4,5-b]pyridine-7-yl)amino)benzenesulfonamide]	–	10 to 50%	10 to 50%	> 50%	< 10%	10 to 50%	10 to 50%	10 to 50%	IC50 [2]: 46 nM
Cc1cc(-c2nc3c(Nc4cccc(S(N)(=O)=O)c4)c(Br)cnc3[nH]2)c(C)n1-c1cccc(N2CCOCC2)c1 [Example 37, 3-((6-bromo-2-(2,5-dimethyl-1-(3-morpholinophenyl)-1H-pyrrol-3-yl)-3H-imidazo[4,5-b]pyridine-7-yl)amino)benzenesulfonamide]	47 nM	> 50%	10 to 50%	> 50%	< 10%	10 to 50%	10 to 50%	10 to 50%	–
Cc1cc(-c2nc3ncc(Br)c(Nc4cccc(S(N)(=O)=O)c4)c3[nH]2)c(C)n1-c1cccc(OCCN2CCOCC2)c1 [Example 38, 3-((6-bromo-2-(2,5-dimethyl-1-(3-(2-morpholinoethoxy)phenyl)-1H-pyrrol-3-yl)-1H-imidazo[4,5-b]pyridine-7-yl)amino)benzenesulfonamide]	52 nM	10 to 50%	> 50%	> 50%	> 50%	> 50%	10 to 50%	> 50%	–

From patent US12545673B2, “Imidazopyridine derivative and pharmaceutical composition comprising same as active ingredient” (TSD LIFE SCIENCES CO., LTD., priority 2019, dated 2026)
